# Measurements published in publication PMC7125926 (Antiviral Research, 2015).
# Values joined by “and” are separate entries in the source; they are usually repeats but may differ in a detail not shown here. Equal values may be shown once. “Also recorded” adds a separate entry of the source. Where a name gives a salt, the structure may show the parent alone. Read-outs that look alike come from different tables or passages of the source.
# Legend:
# influenza virus [1] = settings: mouse, cited from earlier work
# [2] = tested on: PR8 (H1N1) influenza virus; type: cell-based
# IP-10 = assay: tissue or blood; type: cell-based, mouse
# influenza A virus = settings: ref An et al., 2014; cited from earlier work
# [3] = MTT assay of drug toxicity in mouse lung slices; type: cell-based
# influenza virus [4] = type: in vivo, mice; settings: Fig. S5
# [5] = read-out: IP-10-EC50: 50% effective concentration determined by ELISA of IP-10
# [6] = read-out: NA-EC50: 50% effective concentration determined by NA activity assay
# [7] = Mus musculus, 48 h, read-out: IP-10-EC50: 50% effective concentration determined by ELISA of IP-10
Structure (SMILES),In vivo: the protection effect of mice from lethal influenza infection (influenza virus [1]),effect on virus replication / NA activity in lung slices (in words) [2],effect on IP-10 levels in lung slices (in words) (IP-10),EC50 (IP-10; [5]) [µM],antiviral activity in MDCK cells (in words) (influenza A virus),CC50 at 48 h [3] [µM],protection of mice from lethal doses of influenza virus infection (in words) (influenza virus [4]),other results
"CCCCC/C=C/C=C1/C(=O)C=C[C@@H]1C/C=C\CCCC(=O)O [15d-PGJ2, 15-deoxy-Δ^12,14-prostaglandin J2]",+,neither inhibited virus replication,dose dependently decreased IP-10 levels,0.2,–,–,–,inhibition of virus replication (influenza virus [1]; in vivo): does not inhibit virus replication; mice protected from death against lethal influenza infection (influenza virus [1]; in vivo): 79%
CC(C)OC(=O)C(C)(C)Oc1ccc(C(=O)c2ccc(Cl)cc2)cc1 [Fenofibrate],–,inhibited neither,inhibited neither,–,known antiviral activity,> 200,failed to protect mice,–
O=C(O[C@@H]1Cc2c(O)cc(O)cc2O[C@@H]1c1cc(O)c(O)c(O)c1)c1cc(O)c(O)c(O)c1 [EGCG],+,dose dependently decrease NA levels,dose dependently decrease,3.3,–,–,–,"EC50 [2, 6]: 50.1 µM"
Clc1ccccc1C(c1ccccc1)(c1ccccc1)n1ccnc1 [Clotrimazole],–,inhibited neither,inhibited neither,–,known antiviral activity,16.3,failed to protect mice,–
CCN(CC)CCOC(=O)C1(C2CCCCC2)CCCCC1 [Dicyclomine],–,–,inhibited neither,–,–,–,–,–
CCN(CC)CCOC(=O)C(Cc1cccc2ccccc12)CC1CCCO1 (centres unmarked) [Nafronyl oxalate],–,not showing any antiviral activity,inhibited the inflammatory response,–,known antiviral activity,122,–,EC50 (IP-10; [7]): 22.1 µM
N#CC(=C(/N)Sc1ccccc1N)/C(C#N)=C(/N)Sc1ccccc1N [U0126],+,dose dependent inhibition; also recorded: dose dependently decrease NA levels,dose dependently decrease,1.3,–,–,–,"EC50 [2, 6]: 12 µM"
"NC(=O)c1ncn([C@@H]2O[C@H](CO)[C@@H](O)[C@H]2O)n1 [Ribavirin, ribavirin]",–,dose dependent inhibition; also recorded: efficiently inhibited virus replication,–,–,–,> 200,–,"EC50 ([2]; read-out: NA-EC50: 50% effective concentration determined by NA inhibition): 25.4 µM and 28.3 µM and 17.7 µM; EC50 (IP-10; [7]): 21.8 µM; EC50 (IP-10; Mus musculus, 48 h, read-out: IP-10-EC50: 50% effective concentration determined by IP-10 inhibition): 21.8 µM; EC50 (IP-10; read-out: IP-10-EC50: 50% effective concentration determined by IP-10 inhibition): 17.8 µM and 20.6 µM and 14.2 µM"
CCCC(C(=O)OCCN(CC)CC)(c1ccccc1)c1ccccc1 [Proadifen],–,inhibited neither,inhibited neither,–,known antiviral activity,32.2,failed to protect mice,–
C[S+]([O-])c1ccc(-c2nc(-c3ccncc3)c(-c3ccc(F)cc3)[nH]2)cc1 (centres unmarked) [SB203580],+,neither inhibited virus replication,dose dependently decreased IP-10 levels,–,–,> 100,–,–
CC(C)=C1C/C=C(\C)CC/C=C(\C)CC1=O [Gemacrone],+,efficiently inhibited virus replication,–,17.6,–,–,–,"EC50 [2, 6]: 23.1 µM"
CN(C)CCCOc1nn(Cc2ccccc2)c2ccccc12 [Benzydamine],–,inhibited neither,inhibited neither,–,known antiviral activity,113,failed to protect mice,–
